Results published in patent US5023239A, “Sialosyl cholesterol, process for producing the same, and neuropathy remedy comprising the same” (MECT Corporation, priority 1986, dated 1991).

What was measured:
[1] = tested on: Neuroblastoma Cell, Neuro 2a Strain; experiment: Effect on proliferation / neurite propagation of neuroblastoma cell, Neuro 2a strain; format: cell-based, mouse; details: for activity (in words): 24 hours cultivation; for minimal effective concentration: 48 hours after addition; for growth / propagation of neurites (in words): Neuro 2a culture; for activity relative to GMl (times as high): vs GMl; for activity relative to GMl (times as high) / activity relative to GQlb (times as high): from minimal effective concentrations at 48 hours, molecular weights considered; for activity relative to GQlb (times as high): vs GQlb
Procedure: Experiments for confirming the activity of the present compound for promoting propagation of neurites will be explained below.
Effect On Proliferation of Neuroblastoma Cell, Neuro 2a Strain
Neuro 2a was floated on culture medium consisting of 90% of Dulbecco's Modified Eagle's Midium, and 10% of fetal calf serum (FCS), and containing 100 units/ml of penicillin G and 100 micro g/ml of streptomycin sulfate, and then cultivated at 37° C. in a carbon dioxide incubator containing air into which 5% of carbon dioxide was incorporated. The vessel as used was a polystyrene tray having a diameter of 60 mm. 1 to 2×10^4 of the neuroblastoma cells were implanted in each tray and cultivated for 48 hours. The FCS-containing culture was removed from the resultant cell culture. […] When 24 and 48 hours had passed after the addition of these medicines, the number of the living cells increased in the culture, the number of the neurites increased, and the length of the neurites were measured. The experiment was conducted on three trays with respect to each concentration. The resultant data were expressed by average value+standard error (S.E).

ddy male mice = experiment: Acute toxicity test, intravenous injection; format: in vivo, mouse; details: ddy male mice of 45 weeks age
Procedure: Acute toxicity test was conducted by intravenously injecting the compounds into ddy male mice of 45 weeks age.

SMILES: CC(=O)NC1C(O)CC(OC2CCC3(C)C(=CCC4C3CCC3(C)C(C(C)CCCC(C)C)CCC43)C2)(C(=O)O)OC1C(O)C(O)CO [Compound (4), sodium 5-acetoamide-2-O-(5-cholesten-3-yl)-3,5-dideoxy-alpha-D-glycero-D-galacto-2-nonulopyranosonate]
- activity (in words) ([1]; 10 ng/ml): indicated activity
- Length of neurite ± S.E. ([1]; 24 hrs, 10 ng/ml): 92.4 ± 5.31 μm/cell
- Number of neurite propagated cells ([1]; 24 hrs, 10 ng/ml): 131
- Number of neurites ± S.E. ([1]; 24 hrs, 10 ng/ml): 1.2 ± 0.04 number/cell
- Rate of neurite propagation (%) ([1]; 24 hrs, 10 ng/ml): 31.5%
- Total number of cells ([1]; 24 hrs, 10 ng/ml): 416
- Length of neurite ± S.E. ([1]; 24 hrs, 100 ng/ml): 96.7 ± 4.12 μm/cell
- Number of neurite propagated cells ([1]; 24 hrs, 100 ng/ml): 177
- Number of neurites ± S.E. ([1]; 24 hrs, 100 ng/ml): 1.2 ± 0.03 number/cell
- Rate of neurite propagation (%) ([1]; 24 hrs, 100 ng/ml): 41.5%
- Total number of cells ([1]; 24 hrs, 100 ng/ml): 427
- Length of neurite ± S.E. ([1]; 24 hrs, 1 μg/ml): 130.4 ± 6.12 μm/cell
- Number of neurite propagated cells ([1]; 24 hrs, 1 μg/ml): 190
- Number of neurites ± S.E. ([1]; 24 hrs, 1 μg/ml): 1.2 ± 0.03 number/cell
- Rate of neurite propagation (%) ([1]; 24 hrs, 1 μg/ml): 50.9%
- Total number of cells ([1]; 24 hrs, 1 μg/ml): 373
- minimal effective concentration [1]: 10 ng/mL
- Length of neurite ± S.E. ([1]; 48 hrs, 10 ng/ml): 121.9 ± 5.18 μm/cell
- Number of neurite propagated cells ([1]; 48 hrs, 10 ng/ml): 219
- Number of neurites ± S.E. ([1]; 48 hrs, 10 ng/ml): 1.2 ± 0.03 number/cell
- Rate of neurite propagation (%) ([1]; 48 hrs, 10 ng/ml): 46.9%
- Total number of cells ([1]; 48 hrs, 10 ng/ml): 467
- Length of neurite ± S.E. ([1]; 48 hrs, 100 ng/ml): 126.0 ± 6.10 μm/cell
- Number of neurite propagated cells ([1]; 48 hrs, 100 ng/ml): 193
- Number of neurites ± S.E. ([1]; 48 hrs, 100 ng/ml): 1.2 ± 0.04 number/cell
- Rate of neurite propagation (%) ([1]; 48 hrs, 100 ng/ml): 47.8%
- Total number of cells ([1]; 48 hrs, 100 ng/ml): 404
- Length of neurite ± S.E. ([1]; 48 hrs, 1 μg/ml): 156.3 ± 8.32 μm/cell
- Number of neurite propagated cells ([1]; 48 hrs, 1 μg/ml): 182
- Number of neurites ± S.E. ([1]; 48 hrs, 1 μg/ml): 1.2 ± 0.04 number/cell
- Rate of neurite propagation (%) ([1]; 48 hrs, 1 μg/ml): 49.3%
- Total number of cells ([1]; 48 hrs, 1 μg/ml): 369
- growth / propagation of neurites (in words) [1]: strong activity for the propagation of the neurites
- activity relative to GMl (times as high) [1]: 420 times
- activity relative to GQlb (times as high) [1]: 270 times
- LD50 (ddy male mice): 93 mg/kg

SMILES: CC(=O)NC1C(O)CC(OC2CCC3(C)C(=CCC4C3CCC3(C)C(C(C)CCCC(C)C)CCC43)C2)(C(=O)O)OC1C(O)C(O)CO [Compound (5), sodium 5-acetoamide-2-O-(5-cholesten-3-beta-yl)-3,5-dideoxy-beta-D-glycero-D-galacto-2-nonulopyranosonate]
- activity (in words) ([1]; 10 ng/ml): indicated activity
- Length of neurite ± S.E. ([1]; 24 hrs, 10 ng/ml): 89.4 ± 4.23 μm/cell
- Number of neurite propagated cells ([1]; 24 hrs, 10 ng/ml): 124
- Number of neurites ± S.E. ([1]; 24 hrs, 10 ng/ml): 1.3 ± 0.05 number/cell
- Rate of neurite propagation (%) ([1]; 24 hrs, 10 ng/ml): 34.3%
- Total number of cells ([1]; 24 hrs, 10 ng/ml): 361
- Length of neurite ± S.E. ([1]; 24 hrs, 100 ng/ml): 116.4 ± 5.59 μm/cell
- Number of neurite propagated cells ([1]; 24 hrs, 100 ng/ml): 156
- Number of neurites ± S.E. ([1]; 24 hrs, 100 ng/ml): 1.2 ± 0.03 number/cell
- Rate of neurite propagation (%) ([1]; 24 hrs, 100 ng/ml): 40.6%
- Total number of cells ([1]; 24 hrs, 100 ng/ml): 384
- Length of neurite ± S.E. ([1]; 24 hrs, 1 μg/ml): 130.8 ± 5.16 μm/cell
- Number of neurite propagated cells ([1]; 24 hrs, 1 μg/ml): 213
- Number of neurites ± S.E. ([1]; 24 hrs, 1 μg/ml): 1.2 ± 0.04 number/cell
- Rate of neurite propagation (%) ([1]; 24 hrs, 1 μg/ml): 53.8%
- Total number of cells ([1]; 24 hrs, 1 μg/ml): 396
- minimal effective concentration [1]: 100 ng/mL
- Length of neurite ± S.E. ([1]; 48 hrs, 10 ng/ml): 110.6 ± 4.93 μm/cell
- Number of neurite propagated cells ([1]; 48 hrs, 10 ng/ml): 226
- Number of neurites ± S.E. ([1]; 48 hrs, 10 ng/ml): 1.2 ± 0.04 number/cell
- Rate of neurite propagation (%) ([1]; 48 hrs, 10 ng/ml): 47.9%
- Total number of cells ([1]; 48 hrs, 10 ng/ml): 472
- Length of neurite ± S.E. ([1]; 48 hrs, 100 ng/ml): 135.1 ± 6.23 μm/cell
- Number of neurite propagated cells ([1]; 48 hrs, 100 ng/ml): 212
- Number of neurites ± S.E. ([1]; 48 hrs, 100 ng/ml): 1.3 ± 0.04 number/cell
- Rate of neurite propagation (%) ([1]; 48 hrs, 100 ng/ml): 50.2%
- Total number of cells ([1]; 48 hrs, 100 ng/ml): 422
- Length of neurite ± S.E. ([1]; 48 hrs, 1 μg/ml): 138.9 ± 5.39 μm/cell
- Number of neurite propagated cells ([1]; 48 hrs, 1 μg/ml): 252
- Number of neurites ± S.E. ([1]; 48 hrs, 1 μg/ml): 1.2 ± 0.03 number/cell
- Rate of neurite propagation (%) ([1]; 48 hrs, 1 μg/ml): 55.5%
- Total number of cells ([1]; 48 hrs, 1 μg/ml): 454
- growth / propagation of neurites (in words) [1]: strong activity for the propagation of the neurites
- activity relative to GMl (times as high) [1]: 42 times
- activity relative to GQlb (times as high) [1]: 27 times
- LD50 (ddy male mice): 291 mg/kg
